Test results published in patent publication US11013673B2, “Cosmetic compositions containing quinones and their topical use on skin and hair” (Repairogen Corp, priority 2016, dated 2021).

Tests used:
[1] = test system: primary human keratinocytes; experiment: cytotoxicity assay (Cell Titer96 Aqueous One) on keratinocytes; assay type: cell-based; conditions: 24 h
Description: (§1) Normal primary adult human keratinocytes derived from a donor were purchased from PromoCell (Heidelberg, Germany) and cultured in keratinocytes growth medium (Epilife+EDGS, Thermo Fisher Scientific, NY, USA). Keratinocytes cultures were maintained at 37° C. with 5% CO2 and ˜95% humidity.
(§2) Cytotoxicity was evaluated using the Cell Titer96 Aqueous One (Promega, Wis., USA) basic test according to manufacturer's instructions. Cells were seeded at a density of 10,000 cells/well in a 96-well plate and cultured overnight. Treatments with seven doses of compounds were carried out for 24 hours, in triplicates. Colorimetric analysis was performed using an absorbance of 490 nm. Inhibition of viability of more than 20% of the control values was considered cytotoxic.
The cytotoxicity assay on primary human keratinocytes from adult donor was performed after 24 h of culture in the presence of different concentrations of each compound, as indicated in FIG. 2A and Table 1.

[2] = test system: primary human fibroblasts; experiment: cytotoxicity assay (Cell Titer96 Aqueous One) on fibroblasts; conditions: 24 h
Description: Normal human dermal adult fibroblasts derived from a donor of were purchased from CELLnTec (Bern, Switzerland) and grown in DMEM supplemented with 10% FBS (Life Technologies, CA, USA). Fibroblasts cultures were maintained at 37° C. with 5% CO2 and ˜95% humidity.
as §2
The cytotoxicity assay on primary human fibroblasts from adult donor was performed after 24 h of culture in the presence of different concentrations of each compound, as indicated in FIG. 2B and Table 2.

[3] = test system: human epidermal keratinocytes; experiment: microarray analysis of differential gene expression in keratinocytes; conditions: for number of genes downregulated / number of genes upregulated: 24 h
Description: as §1
Normal primary human keratinocytes were seeded in 6-well plates and incubated for 24 h. Cells were then washed in PBS (Thermo Fisher Scientific) and reincubated for 24 more hours in the presence of RGN1518 and RGN1538 (each at two different concentrations), vehicle control, or positive control. Following treatment, the cells were washed with PBS, collected and stored frozen at −80° C. before RNA extraction.
RNA was extracted using a Qiagen RNeasy kit (Qiagen, CA, USA) according to manufacturer's protocol.
18 vials containing RNA isolated from human epidermal keratinocytes and 18 vials containing RNA isolated from human fibroblasts were shipped to Thermo Fisher Scientific, Advanced BioMedical Laboratories (Cinnaminson, N.J.) on dry ice for Affymetrix Human Clariom D array processing.
The differential gene expression was obtained using a threshold of 0.05 for statistical significance (p-value) and a log fold change of expression with absolute value of at least 1. Gene expression was further analysed using Differential Expression Analysis and Pathway Analysis iPathwayGuide) by Advaita Bioinformatics Services (Plymouth, Mich.) in the context of pathways obtained from the Kyoto Encyclopedia of Genes and Genomes (KEGG) database (Release 84.0+/10-26, October 17) (Kanehisa et al., 2000; Kanehisa et al., 2002), gene ontologies from the Gene Ontology Consortium database (2017 Nov. 6) (Ashburner et al., 2000; Gene Ontology Consortium, 2001), miRNAs from the miRBase (Release 21) and […] (Targetscan version:Mouse:7.1, Human:7.1) databases (Agarwal et al., 2015; Nam et al., 2014; Griffiths-Jones et al., 2008; Kozomara and Griffiths-Jones, 2014; Friedman et al., 2009; Grimson et al., 2007), and diseases from the KEGG database (Release 84.0+/10-26, October 17) (Kanehisa et al., 2000; Kanehisa et al., 2002). All references are available in the reports for bioinformatics analysis of differential gene expression provided by Advaita Bioinformatics Services at the following link.

human fibroblasts = experiment: microarray analysis of differential gene expression in fibroblasts; assay type: cell-based
[4] = stability of active ingredient in cosmetic composition; conditions: 40° C., 50° C., −5° C.; two-, four-, six-, eight-, and 12-week time points
Description: Two cosmetic compositions were prepared, one containing lapachol (denoted RGN 1538) and the other containing myrtucommulone C (denoted RGN 1518) as active ingredients, and the stabilities of the active ingredients in these compositions were evaluated.

[5] = concentration of 50 (unit not given), 24 h
[6] = wound healing gene, fibroblasts, 24 h

myrtucommulone C
Avg (% of untreated) ([1]; 6.2 μM): 80% | Avg (% of untreated) ([1]; 12.4 μM): 44% | Avg (% of untreated) ([1]; 24.8 μM): 43% | Avg (% of untreated) ([1]; 50 μM): 47% | Avg (% of untreated) ([1]; 100 μM): 43% | Avg (% of untreated) ([1]; 200 μM): 54% | Avg (% of untreated) ([1]; 400 μM): 51% | concentrations that showed no cytotoxicity ([1]; unit not given): up to 6.2 | Avg (% of untreated) ([2]; 6.2 μM): 97% | Avg (% of untreated) ([2]; 12.4 μM): 94% | Avg (% of untreated) ([2]; 24.8 μM): 90% | Avg (% of untreated) ([2]; 50 μM): 88% | Avg (% of untreated) ([2]; 100 μM): 74% | Avg (% of untreated) ([2]; 200 μM): 72% | Avg (% of untreated) ([2]; 400 μM): 54% | concentrations that showed no cytotoxicity ([2]; unit not given): up to 50 | expression of DNAJB9 [3]: upregulated | expression of cell cycle genes PKMYT1, MYC [3]: upregulated | number of genes downregulated ([3]; 1.6 μM): 1196 genes | number of genes upregulated ([3]; 1.6 μM): 492 genes | number of genes downregulated ([3]; 3.1 μM, of 24905 genes): 1294 genes | number of genes upregulated ([3]; 3.1 μM, of 24905 genes): 693 genes | expression of cell cycle genes ([3]; CDK1, PLK1, RB1, CDC25C, CDC25B, MAD2L1, CDKN2B, CCNA2, MAD1L1, TTK, ZBTB17, RBL1, CCNB1, CCNB2, BUB1, CDC20, PTTG1, BUB1B): downregulated | expression of genes maintaining structure and activity of the Golgi apparatus ([3]; COG6, ARFGAP3, IFT20, MGAT4): upregulated | expression of genes important for normal differentiation and function of skin ([3]; FGF2, VEGFA, SERPINB1, CDH4, GDF15): upregulated | expression of genes involved in Metabolic Pathways ([3]; GK, FA2H, ASS1, ACSS2, HK2, PHGDH, CYP1A1, CSGALNACT2): upregulated | expression of genes associated with inflammation ([3]; IL1A, IL6, IL1R2, IL1RL1, IL2RG, TSC22D3): upregulated | expression of genes involved in Metabolic Pathways ([3]; MTHFD1, CYP2J2, RRM2, TYMS): downregulated | vascular wound healing, spreading of epidermal cells and vasculature development (gene profile) (human fibroblasts): activation | number of genes downregulated (human fibroblasts; 25 μM, 24 h, of 24905 genes): 430 genes | number of genes upregulated (human fibroblasts; 25 μM, 24 h, of 24905 genes): 986 genes | number of genes downregulated (human fibroblasts; 62 μM, 24 h): 76 genes | number of genes upregulated (human fibroblasts; 62 μM, 24 h): 53 genes | gene expression of common skin targets (human fibroblasts; CRELD1, NGF, GLRX2, CSGALNACT2, VEGFA, ITGA2, PPARG, EPGN): upregulated | number of genes involved in wound healing downregulated (human fibroblasts; at both doses): 24 genes | number of genes involved in wound healing upregulated (human fibroblasts; at both doses): 28 genes | hair cycle, hair follicle morphogenesis and development (biological processes) (human fibroblasts; both concentrations): affected | number of genes downregulated (human fibroblasts; [5]): 468 genes | number of genes upregulated (human fibroblasts; [5]): 821 genes | Log Fc ACTB (human fibroblasts; [6]): −1.055 | Log Fc ADAM17 (human fibroblasts; [6]): 1.323 | Log Fc AJUBA (human fibroblasts; [6]): −1.145 | Log Fc CARMIL1 (human fibroblasts; [6]): −1.177 | Log Fc DGKE (human fibroblasts; [6]): 1.432 | Log Fc EDN1 (human fibroblasts; [6]): −1.404 | Log Fc EREG (human fibroblasts; [6]): 2.169 | Log Fc F2RL2 (human fibroblasts; [6]): 1.038 | Log Fc F3 (human fibroblasts; [6]): −1.039 | Log Fc FGF10 (human fibroblasts; [6]): −1.313 | Log Fc FGFR1OP2 (human fibroblasts; [6]): 1.213 | Log Fc GATA6 (human fibroblasts; [6]): −1.081 | Log Fc GSN (human fibroblasts; [6]): −1.041 | Log Fc HBEGF (human fibroblasts; [6]): 1.225 | Log Fc HIST1H3G (human fibroblasts; [6]): −2.339 | Log Fc HIST2H3A (human fibroblasts; [6]): −1.285 | Log Fc HMOX1 (human fibroblasts; [6]): 1.346 | Log Fc IFRD1 (human fibroblasts; [6]): 1.072 | Log Fc IL6 (human fibroblasts; [6]): 2.578 | Log Fc IL24 (human fibroblasts; [6]): 1.179 | Log Fc IRF1 (human fibroblasts; [6]): 1.27 | Log Fc ITGA2 (human fibroblasts; [6]): 2.425 | Log Fc ITGB3 (human fibroblasts; [6]): 2.051 | Log Fc ITPR1 (human fibroblasts; [6]): 1.812 | Log Fc LBH (human fibroblasts; [6]): −1.524 | Log Fc MAFK (human fibroblasts; [6]): 1.267 | Log Fc MERTK (human fibroblasts; [6]): 1.107 | Log Fc MIR199A1 (human fibroblasts; [6]): 2.142 | Log Fc MIR221 (human fibroblasts; [6]): 1.648 | Log Fc MYLK (human fibroblasts; [6]): −1.62 | Log Fc NDNF (human fibroblasts; [6]): 1.132 | Log Fc NOV (human fibroblasts; [6]): −1.524 | Log Fc PDGFD (human fibroblasts; [6]): −1.782 | Log Fc PDPN (human fibroblasts; [6]): 1.265 | Log Fc PLAUR (human fibroblasts; [6]): 1.077 | Log Fc PLET1 (human fibroblasts; [6]): 1.412 | Log Fc PLPP3 (human fibroblasts; [6]): −1.23 | Log Fc RAB27A (human fibroblasts; [6]): 1.228 | Log Fc SMAD3 (human fibroblasts; [6]): −1.102 | Log Fc SYT7 (human fibroblasts; [6]): 1.079 | Log Fc TFPI2 (human fibroblasts; [6]): 2.549 | Log Fc TGFBR2 (human fibroblasts; [6]): −1.067 | Log Fc THBD (human fibroblasts; [6]): 4.119 | Log Fc THBS1 (human fibroblasts; [6]): −1.287 | Log Fc TLN1 (human fibroblasts; [6]): −1.13 | Log Fc TMEFF2 (human fibroblasts; [6]): −1.526 | Log Fc TNFAIP3 (human fibroblasts; [6]): 2.328 | Log Fc TPM1 (human fibroblasts; [6]): −1.209 | Log Fc TRPC6 (human fibroblasts; [6]): −2.444 | Log Fc UBASH3B (human fibroblasts; [6]): 1.546 | Log Fc WNT5A (human fibroblasts; [6]): −1.732 | acceptable degradation of active compound (20% or 80% of original) [4]: met this criteria
